Values after ≈ are worked out from the molar mass of the structure shown. Where two headings read alike, the source gives them in different places.
Assays:
[1] = cited from earlier work
[2] = set-up: method as in doi:10.1016/j.jddst.2022.103166; conditions: cited from earlier work
[3] = Equilibrium solubility of TDL in oils, surfactants and cosurfactants; type: physicochemical
Protocol: The equilibrium solubility of TDL in selected oils was measured by adding an excess quantity of the drug to 1 mL of oils (Miglyol® 812 N, Miglyol® 840, Miglyol® 829, triacetin, isopropyl myristate, castor oil, oleic acid, cinnamon oil, N-methyl pyrrolidone) separately in 1.5 mL stoppered glass vials and mixed by a vortex mixer. Samples were further placed at room temperature (25 ± 1 °C) on a shaker (Incu-Shaker, Benchmark Scientific, Edison, NJ, USA) at 180 rpm for 72 h. The mixture was further centrifuged for 15 min at 3000 rpm. The upper supernatant was removed, and the amount of drug was determined using UV analyzer (Jenway, Staffs, UK) at a lambda max of 284 nm. The data presented in Table 1 are the mean values and standard deviations (SDs) for each oil sample, based on three replicates.
The solubility screening of TDL in various surfactants (Tween 80, Span 80, Cremophor RH 40, PEG-400, propylene glycol, isopropyl alcohol, and Transcutol) was performed following the same procedure as the oil screening. The results presented in the article are the mean values and standard deviations (SDs) for surfactant and cosurfactant samples, based on three replicates.

[4] = cited from earlier work; remark: listed apart in the source

CN1CC(=O)N2[C@H](c3ccc4c(c3)OCO4)c3[nH]c4ccccc4c3C[C@@H]2C1=O [Tadalafil]
half-life [1]: 15 to 17 h
log p [2]: 2.89
solubility at 72 h ([3]; 25 °C, oil or lipid, thermodynamic from solid, in Castor oil, 25 ± 1 °C, 72 h): 450 ± 30 µg/mL (≈ 1160 µM)
solubility at 72 h ([3]; 25 °C, oil or lipid, thermodynamic from solid, in Cinnamon oil, 25 ± 1 °C, 72 h): 53600 ± 2580 µg/mL (≈ 138000 µM)
solubility at 72 h ([3]; 25 °C, oil or lipid, thermodynamic from solid, in Miglyol 812N, 25 ± 1 °C, 72 h): 330 ± 10 µg/mL (≈ 847 µM)
solubility at 72 h ([3]; 25 °C, oil or lipid, thermodynamic from solid, in Miglyol 829, 25 ± 1 °C, 72 h): 910 ± 140 µg/mL (≈ 2340 µM)
solubility at 72 h ([3]; 25 °C, oil or lipid, thermodynamic from solid, in Miglyol 840, 25 ± 1 °C, 72 h): 290 ± 10 µg/mL (≈ 745 µM)
solubility at 72 h ([3]; 25 °C, oil or lipid, thermodynamic from solid, in Oleic acid, 25 ± 1 °C, 72 h): 190 ± 10 µg/mL (≈ 488 µM)
solubility at 72 h ([3]; 25 °C, oil or lipid, thermodynamic from solid, in Triacetin, 25 ± 1 °C, 72 h): 3830 ± 70 µg/mL (≈ 9840 µM)
solubility at 72 h ([3]; 25 °C, organic solvent or mixture, thermodynamic from solid, in Isopropyl alcohol): 510 ± 10 µg/mL (≈ 1310 µM)
solubility at 72 h ([3]; 25 °C, organic solvent or mixture, thermodynamic from solid, in PEG-400): 14000 ± 1010 µg/mL (≈ 35900 µM)
solubility at 72 h ([3]; 25 °C, organic solvent or mixture, thermodynamic from solid, in Propylene glycol): 840 ± 50 µg/mL (≈ 2160 µM)
solubility at 72 h ([3]; 25 °C, organic solvent or mixture, thermodynamic from solid, in Transcutol): 33400 ± 1320 µg/mL (≈ 85700 µM)
solubility at 72 h ([3]; 25 °C, thermodynamic from solid, in Cremophor RH 40): 27600 ± 1230 µg/mL (≈ 70800 µM)
solubility at 72 h ([3]; 25 °C, thermodynamic from solid, in N-methyl pyrrolidone, 25 ± 1 °C, 72 h): 325000 ± 4560 µg/mL (≈ 835000 µM)
solubility at 72 h ([3]; 25 °C, thermodynamic from solid, in Span 80): 170 ± 30 µg/mL (≈ 437 µM)
solubility at 72 h ([3]; 25 °C, thermodynamic from solid, in Tween 80): 280 ± 10 µg/mL (≈ 719 µM)
solubility at 72 h ([3]; in Cremophor RH 40): ~27600 µg/mL (≈ 70800 µM)
solubility at 72 h ([3]; in Transcutol): ~33400 µg/mL (≈ 85700 µM)
water solubility [4]: 3.2 µg/mL (≈ 8.22 µM)
solubility in water ([4]; lower literature value): 0.73 µg/mL (≈ 1.87 µM)
solubility in water ([4]; upper literature value): 3.48 µg/mL (≈ 8.94 µM)

CCCc1nn(C)c2c(=O)[nH]c(-c3cc(S(=O)(=O)N4CCN(C)CC4)ccc3OCC)nc12 [sildenafil]
half-life [1]: 3.8 h

Reference: article PMC12115342, “Preparation and Evaluation of Tadalafil-Loaded Nanoemulgel for Transdermal Delivery in Cold-Induced Vasoconstriction: A Potential Therapy for Raynaud’s Phenomenon” (Pharmaceutics, 2025)
